For orientation: EC50 means the concentration that produces a half-maximal response. A high value points to weaker potency.

Test [1] has as its system AMARE (Amaranthus retroflexus). In words: Greenhouse herbicidal test, post-emergence, AMARE. Type of test: in vivo. The following applies: Amaranthus retroflexus, application rate 1 kg/ha, scale 0 to 100, read-out: herbicidal activity against AMARE. From the text: (§1) The seeds of the test plants were sown separately for each species. For the post-emergence treatment, the test plants were first grown to a height of 2 to 5 cm, depending on the plant habit, and only then treated with the active ingredients which had been suspended or emulsified in water. For this purpose, the test plants were either sown directly and grown in the same containers, or they were first grown separately as seedlings and transplanted into the test containers a few days prior to treatment. Depending on the species, the plants were kept at 10-25° C. or 20-35° C. The test period extended over 8 to 9 days. During this time, the plants were tended, and their response to the individual treatments was evaluated. Evaluation was carried out using a scale from 0 to 100. 100 means no emergence of the plants, or complete destruction of at least the aerial moieties, and 0 means no damage, or normal course of growth. A good herbicidal activity is given at values of at least 70 and a very good herbicidal activity is given at values of at least 85. The plants used in the greenhouse experiments belonged to the following species: [table]

The subject of test [2] is SETFA, AMARE, POLCO, CHEAL, GALAP. In words: Greenhouse herbicidal test, post-emergence, weed panel. To be noted: application rate 1 kg/ha, scale 0 to 100. Type of test: in vivo.
Source text: as §1

Test [3] concerns CHEAL (Chenopodium album). As to the kind of experiment: Greenhouse herbicidal test, post-emergence, CHEAL. Type of test: in vivo. To be noted: Chenopodium album, application rate 1 kg/ha, scale 0 to 100, read-out: herbicidal activity against CHEAL.
Source text: as §1

The target in test [4] is Arabidopsis thaliana SHMT. As to the kind of experiment: SHMT activity assay (ED50 SHMT), coupled with N5,N10-CH2-THF dehydrogenase, NADH at 340 nm. Type of test: biochemical. To be noted: values given as upper bounds. In outline: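 His-tagged SHMT purified on Ni-NTA. NADH formation followed at 340 nm for 30 min; ED50 from inhibition of initial velocity.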
Test [5] relates to SETFA (Setaria faberi). In words: Greenhouse herbicidal test, post-emergence, SETFA. Type of test: in vivo. The following applies: application rate 1 kg/ha, scale 0 to 100, read-out: herbicidal activity against SETFA.
Source text: as §1

Test [6] relates to GALAP (Galium aparine). In words: Greenhouse herbicidal test, post-emergence, GALAP. Type of test: in vivo. The following applies: application rate 1 kg/ha, scale 0 to 100.
Source text: as §1

Where [7] appears, read: Arabidopsis thaliana SHMT enzyme assay.

`COCC(=O)N(C)c1cc(C#N)cc(C2(C(C)C)C(C#N)=C(N)Oc3[nH]nc(C)c32)c1` (stereo not shown) [Compound 2.688]: the pest or weed control at 1000 g/ha in test [1], in test [3] and in test [5] was at least 85% in each case. Also, in test [2], the “herbicidal activity against at least three of the weeds SETFA, AMARE, POLCO, CHEAL, GALAP” value (“herbicidal activity against … CHEAL, GALAP” for short) is listed as “good or very good”. In addition, the EC50 in test [4] (setting [7]) is below 0.01 µM.
`Cc1n[nH]c2c1C(c1cc(OCC#N)cc(C(F)(F)F)c1)(C1CCC1)C(C#N)=C(N)O2` (stereo not shown) [Compound 2.470]: the pest or weed control at 1000 g/ha in test [1], in test [3] and in test [5] was at least 85% in each case. In test [2], the “herbicidal activity against … CHEAL, GALAP” value is “good or very good”. This compound also yielded an EC50 in test [4] (Table 2) below 0.1 µM.
In the case of `Cc1n[nH]c2c1C(c1cc(C#N)cc(N(C)C(=O)CCCC#N)c1)(C(C)C)C(C#N)=C(N)O2` (stereo not shown) [Compound 2.664], the pest or weed control at 1000 g/ha in test [1], in test [3] and in test [5] was at least 85% each time. Further, the “herbicidal activity against … CHEAL, GALAP” value in test [2] is listed as “good or very good”. Further, in test [4] (setting [7]), the EC50 is below 0.01 µM.
With `COc1c(C#N)cc(C2(C3CCC3)C(C#N)=C(N)Oc3[nH]nc(C)c32)cc1C#N` (stereo not shown) [Compound 2.486], the pest or weed control at 1000 g/ha was at least 85% in test [1] and at least 70% in test [3]. The “herbicidal activity against … CHEAL, GALAP” value in test [2] is “good or very good”. The “herbicidal activity against GALAP” value in test [6] is recorded as “very good (a very good herbicidal activity is given at values of at least 85)”. The compound also came in with an EC50 in test [4] (Table 2) below 0.01 µM.
As to `Cc1n[nH]c2c1C(c1cc(C#N)cc(CCCC#N)c1)(C(C)C)C(C#N)=C(N)O2` (stereo not shown) [Compound 2.675], the values for the pest or weed control at 1000 g/ha in test [1], in test [3] and in test [5] were at least 85%, at least 85% and at least 70%, respectively. In addition, the “herbicidal activity against … CHEAL, GALAP” value in test [2] is “good or very good”. The EC50 in test [4] (setting [7]) was below 0.01 µM.
As for `Cc1n[nH]c2c1C(c1cc(Br)cc(N(C)C(=O)CC#N)c1)(C1CCC1)C(C#N)=C(N)O2` (stereo not shown) [Compound 2.729], the pest or weed control at 1000 g/ha in test [1] is at least 85%; in test [3], at least 85%; in test [5] it was at least 70%. The “herbicidal activity against … CHEAL, GALAP” value in test [2] is recorded as “good or very good”. This compound also registered an EC50 in test [4] (setting [7]) below 0.01 µM.
As to `Cc1n[nH]c2c1C(c1cc(C#N)cc(N(C)C(=O)CCC#N)c1)(C(C)C)C(C#N)=C(N)O2` (stereo not shown) [Compound 2.663], the pest or weed control at 1000 g/ha in test [1] was at least 85%; in test [3], at least 70%; in test [5] it was at least 85%. Further, in test [2], the “herbicidal activity against … CHEAL, GALAP” value is reported as “good or very good”. The EC50 in test [4] (setting [7]) is below 0.01 µM.
Take `Cc1n[nH]c2c1C(c1cc(C#N)cc(N(C)C(=O)CC#N)c1)(C(C)C)C(C#N)=C(N)O2` (stereo not shown) [Compound 2.662]: the pest or weed control at 1000 g/ha in test [1], in test [3] and in test [5] was at least 85% throughout. In addition, the “herbicidal activity against … CHEAL, GALAP” value in test [2] is on record as “good or very good”. In test [4] (setting [7]), the EC50 is below 0.01 µM.

The record behind these values is patent US9480259B2, “Pyrazolopyrans having herbicidal and pharmaceutical properties” (BASF SE, priority 2012, dated 2016).
